Patent US9695155B2, “Herbicidal substituted pyrimidinyloxy benzene compounds” (E. I. DU PONT DE NEMOURS AND COMPANY, priority 2013, dated 2017)

Tests used:
[1] = system: corn; experiment: Test C preemergence; assay type: in vivo, Zea mays; details: for Corn plant response rating: preemergence
Summary of the method: (§1)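 Seeds are planted in blended loam soil and sand and treated preemergence, while seedlings in a peat moss/vermiculite medium receive postemergence sprays at 2 to 18 cm height. All plants stay in the greenhouse for 13 to 15 days before visual comparison with controls on a 0–100 scale.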

[2] = system: blackgrass; experiment: Test C preemergence; assay type: in vivo, Alopecurus myosuroides; details: for Blackgrass plant response rating: preemergence
Summary of the method: as §1

[3] = system: velvetleaf; experiment: Test A preemergence; assay type: in vivo, Abutilon theophrasti; details: 1000 g ai/ha, 0 to 100 scale, 0 no effect, 100 complete control, approx. 10 days
Summary of the method: (§2)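 Visual injury scored 0–100 (100 = complete control) against untreated controls about 10 days after treatment in a greenhouse. Test chemicals, formulated with surfactant in non-phytotoxic solvent, were sprayed on soil preemergence or on 2-10 cm, one- to two-leaf plants postemergence.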

[4] = system: pigweed; experiment: Test C postemergence; assay type: in vivo, Amaranthus retroflexus; details: for Plant response rating, Pigweed: scale 0 to 100 (0 no effect, 100 complete control)
Summary of the method: as §1

[5] = system: waterhemp; experiment: Test C preemergence; assay type: in vivo, Amaranthus rudis; details: for Waterhemp plant response rating: preemergence
Summary of the method: as §1

[6] = system: soybean; experiment: Test C preemergence; assay type: in vivo, Glycine max; details: for Soybean plant response rating: preemergence
Summary of the method: as §1

[7] = system: ragweed; experiment: Test C preemergence; assay type: in vivo, Ambrosia elatior; details: for Ragweed plant response rating: preemergence
Summary of the method: as §1

[8] = system: waterhemp; experiment: Test C postemergence; assay type: in vivo, Amaranthus rudis; details: for Plant response rating, Waterhemp: scale 0 to 100 (0 no effect, 100 complete control)
Summary of the method: as §1

[9] = system: morningglory; experiment: Test C preemergence; assay type: in vivo, Ipomoea coccinea; details: for Morningglory plant response rating: preemergence
Summary of the method: as §1

[10] = system: blackgrass; experiment: Test C postemergence; assay type: in vivo, Alopecurus myosuroides; details: for Plant response rating, Blackgrass: scale 0 to 100 (0 no effect, 100 complete control)
Summary of the method: as §1

[11] = system: lambsquarters; experiment: Test C postemergence; assay type: in vivo, Chenopodium album; details: for Plant response rating, Lambsquarters: scale 0 to 100 (0 no effect, 100 complete control)
Summary of the method: as §1

[12] = system: corn; experiment: Test C postemergence; assay type: in vivo, Zea mays; details: for Plant response rating, Corn: scale 0 to 100 (0 no effect, 100 complete control)
Summary of the method: as §1

[13] = system: Italian ryegrass; experiment: Test C postemergence; assay type: in vivo, Lolium multiflorum; details: for Plant response rating, Ryegrass, Italian: scale 0 to 100 (0 no effect, 100 complete control)
Summary of the method: as §1

[14] = system: barnyardgrass; experiment: Test C preemergence; assay type: in vivo, Echinochloa crus-galli; details: for Barnyardgrass plant response rating: preemergence
Summary of the method: as §1

[15] = system: barnyardgrass; experiment: Test C postemergence; assay type: in vivo, Echinochloa crus-galli; details: for Plant response rating, Barnyardgrass: scale 0 to 100 (0 no effect, 100 complete control)
Summary of the method: as §1

[16] = system: oilseed rape; experiment: Test C preemergence; assay type: in vivo, Brassica napus; details: for Oilseed Rape plant response rating: preemergence
Summary of the method: as §1

[17] = system: barnyardgrass; experiment: Test A preemergence; assay type: in vivo, Echinochloa crus-galli; details: 1000 g ai/ha, 0 to 100 scale, 0 no effect, 100 complete control
Summary of the method: as §2

[18] = system: giant foxtail; experiment: Test A preemergence; assay type: in vivo, Setaria faberii; details: 1000 g ai/ha, 0 to 100 scale, 0 no effect, 100 complete control, approx. 10 days
Summary of the method: as §2

[19] = 16 g ai/ha, scale 0 to 100 (0 no effect, 100 complete control)
[20] = 62 g ai/ha, scale 0 (no effect) to 100 (complete control)
[21] = 125 g ai/ha, scale 0 (no effect) to 100 (complete control)
[22] = Preemergence, 31 g ai/ha, scale 0 to 100, 0 no effect, 100 complete control
[23] = 16 g ai/ha, postemergence, 0 is no effect, 100 is complete control
[24] = 125 g ai/ha, postemergence, visual rating
[25] = Postemergence, 31 g ai/ha, 13 to 15 days

For `N#Cc1cn(-c2c(Br)cccc2Oc2ncc(Cl)cn2)nn1` [Compound 116], the “Corn plant response rating” value [1, 19] was 0, the “Corn plant response rating” value [1, 20] was 5 and the “Corn plant response rating” value [1, 21] was 25. For the same molecule, the “Plant response rating, Corn” value [1, 22] was 0, the “Blackgrass plant response rating” value [2, 19] was 0 and the “Blackgrass plant response rating” value [2, 20] was 60. The “Blackgrass plant response rating” value [2, 21] was 85, the “Plant response rating, Blackgrass” value [2, 22] was 10 and the “Velvetleaf plant response rating” value [3] was 100. For the same molecule, the “Plant response rating (0 to 100), Pigweed” value [4, 23] was 80, the “Plant response rating, Pigweed” value [4, 24] was 95 and the “Plant response rating, Pigweed” value ([4]; Postemergence, 62 g ai/ha) was 90. For the same molecule, the “Waterhemp plant response rating” value [5, 19] was 100, the “Waterhemp plant response rating” value [5, 20] was 100 and the “Waterhemp plant response rating” value [5, 21] was 100. The “Plant response rating, Waterhemp” value [5, 22] was 100, the “Soybean plant response rating” value [6, 19] was 0 and the “Soybean plant response rating” value [6, 20] was 40. For the same molecule, the “Soybean plant response rating” value [6, 21] was 70, the “Plant response rating, Soybean” value [6, 22] was 25 and the “Ragweed plant response rating” value [7, 19] was 0. The “Ragweed plant response rating” value [7, 20] was 45, the “Ragweed plant response rating” value [7, 21] was 45 and the “Plant response rating, Ragweed” value [7, 22] was 5. The “Plant response rating (0 to 100), Waterhemp” value [8, 23] was 65, the “Plant response rating, Waterhemp” value [8, 24] was 95 and the “Plant response rating, Waterhemp” value ([8]; Postemergence, 62 g ai/ha) was 80. For the same molecule, the “Morningglory plant response rating” value [9, 19] was 0, the “Morningglory plant response rating” value [9, 20] was 20 and the “Morningglory plant response rating” value [9, 21] was 20. For the same molecule, the “Plant response rating, Morningglory” value [9, 22] was 5, the “Plant response rating (0 to 100), Blackgrass” value [10, 23] was 0 and the “Plant response rating, Blackgrass” value [10, 24] was 25. The “Plant response rating, Blackgrass” value [10, 25] was 5, the “Plant response rating, Blackgrass” value ([10]; Postemergence, 62 g ai/ha) was 10 and the “Plant response rating (0 to 100), Lambsquarters” value [11, 23] was 5. The “Plant response rating, Lambsquarters” value [11, 24] was 80, the “Plant response rating, Lambsquarters” value ([11]; Postemergence, 62 g ai/ha) was 50 and the “Plant response rating (0 to 100), Corn” value [12, 23] was 0. The “Plant response rating, Corn” value [12, 24] was 5, the “Plant response rating, Corn” value ([12]; Postemergence, 62 g ai/ha) was 5 and the “Plant response rating (0 to 100), Ryegrass, Italian” value [13, 23] was 5. For the same molecule, the “Plant response rating, Ryegrass, Italian” value [13, 24] was 5, the “Plant response rating, Ryegrass, Italian” value ([13]; Postemergence, 62 g ai/ha) was 5 and the “Barnyardgrass plant response rating” value [14, 19] was 0. The “Barnyardgrass plant response rating” value [14, 20] was 45, the “Barnyardgrass plant response rating” value [14, 21] was 70 and the “Plant response rating, Barnyardgrass” value [14, 22] was 25. For the same molecule, the “Plant response rating (0 to 100), Barnyardgrass” value [15, 23] was 0, the “Plant response rating, Barnyardgrass” value [15, 24] was 20 and the “Plant response rating, Barnyardgrass” value [15, 25] was 5. The “Plant response rating, Barnyardgrass” value ([15]; Postemergence, 62 g ai/ha) was 5, the “Oilseed Rape plant response rating” value [16, 19] was 0 and the “Oilseed Rape plant response rating” value [16, 20] was 98. For the same molecule, the “Oilseed Rape plant response rating” value [16, 21] was 100, the “Plant response rating, Oilseed Rape” value [16, 22] was 5 and the “Plant response rating, Barnyardgrass” value [17] was 90. The “Foxtail, Giant plant response rating” value [18] was 100.
